Article PMC10459814

Legend:
HepG2 = test: MTT cytotoxicity assay, HepG2; format: cell-based; conditions: Homo sapiens, mean ± SD
Method: (§1) The cytotoxic activity of these three compounds was evaluated against HepG2, Hct-116, and SKOV3 cancer cells by MTT assay, using doxorubicin (DOX) as the positive control.

SKOV3 = test: MTT cytotoxicity assay, SKOV3; format: cell-based; conditions: Homo sapiens, SK-OV-3, mean ± SD
Method: as §1

[1] = system: CT26 murine colon carcinoma cells; test: In vivo antitumor efficacy and safety in CT26 tumor-bearing BALB/c mice; conditions: for tumor weight reduction / relative tumor volume growth rate (T/C): CT26 tumor-bearing BALB/c mice; for tumor weight reduction: 21 days
Excerpt: Given its promising in vitro enzymatic potencies, compound NK3 was further evaluated for antitumor efficacy in vivo with a model by injecting immunocompetent BALB/c mice with CT26 murine colon carcinoma cells (Figure 5). CT26 cells, derived from the epithelial glands of BALB/C mice with colon cancer, are commonly employed as a model for investigating immunotherapies and studying host immune responses. […] Dose-dependent growth-inhibitory potency of NK3 was observed (Figure 5B).
Figure 5 In vivo antitumor activity of compound NK3 in CT26 tumor-bearing mice. […] (B) Tumor weight of the excised tumors of each group. (C) Tumor volume of the mice in each group during the observation period. (D) Body weight of the mice from each group at the end of the observation period. Body weight change of each group of mice. The data were presented as the mean ± SD. p < 0.05 (versus the vehicle control group). The antitumor assay in CT26 tumor-bearing mice was carried out in one experiment with previous work.
Pathological analysis of tissue sections from major organs (heart, liver, lung, spleen, and kidney) of CT26 tumor-bearing mice. Hematoxylin and eosin (H&E) were used to stain the organs with representative images captured. The H&E staining of CT26 tumor-bearing mice was carried out in one experiment with previous work.

Hct-116 = test: MTT cytotoxicity assay, Hct-116; format: cell-based; conditions: Homo sapiens, mean ± SD
Method: as §1

human IDO1 [2] = target: T1, human IDO1 (Homo sapiens, UniProt P14902); test: IDO1 standard enzymatic inhibition assay
[3] = system: STAT3 nuclear translocation; test: Immunofluorescence staining of IL-6-induced STAT3 nuclear translocation in HepG2 cells; format: cell-based, human; conditions: 2 μM, IL-6 stimulation 30 min
Method: The central role of nuclear translocation in the functioning of transcription factors is evident. The activation of STAT3 transcription is reliant on its nuclear translocation and subsequent binding to target DNA [43], so we further investigated the inhibitory effect of NK3 on preventing STAT3 from translocating to the nucleus by immunofluorescence staining. To this end, HepG2 cells were treated with 2 μM NK3 for […], and then IL-6 was added to stimulate STAT3 translocation for 30 min.
Figure 9 NK3 inhibited the nuclear translocation of STAT3. […] Cells were treated with 2 μM NK3 for 12 h with or without pre-treatment with 50 ng/mL of IL-6 for 30 min. Then, cells were fixed and stained with anti-p-STAT3 and DAPI before being subjected to Zeiss LSM700 Confocal Microscope for analysis.

human IDO1 [4] = target: T1, human IDO1; test: SPR binding assay (Biacore T200) with IDO1; conditions: immobilized recombinant IDO1, 0.078-10.0 μM, read-out: KD (equilibrium dissociation constant) with IDO1
Method: A surface plasmon resonance (SPR)-based binding assay was conducted to validate the direct interaction between NK3 and IDO1 protein using a Biacore T200 optical biosensor. This analytical method is valuable for determining the kinetic and thermodynamic parameters of ligand–protein complex formation and is widely employed in the study of enzyme–enzyme/inhibitor interactions. The binding affinity between compound NK3 and IDO1 was assessed utilizing Biacore analysis software, accompanied by measurements of kinetic association and dissociation. As depicted in Figure 3, compound NK3 efficiently interacted with the immobilized protein to induce a concentration-dependent response for association or dissociation, respectively. […] The binding assays confirmed the direct binding of compound NK3 to IDO1 protein.
Figure 3 The binding affinity of NK3 with recombinant IDO1 determined by the SPR assay. Concentration from top to bottom: 0.078 μM, 0.156 μM, 0.313 μM, 0.625 μM, 1.25 μM, 2.5 μM, 5.0 μM, and 10.0 μM.

recombinant STAT3 = recombinant STAT3 (Homo sapiens, UniProt P40763); test: SPR binding assay (BIAcore) with STAT3; conditions: recombinant STAT3, 0.078-10.0 μM, read-out: KD (equilibrium dissociation constant) with STAT3
Method: In order to further investigate the direct interaction between NK3 and STAT3, we conducted an SPR binding assay.
Figure 8 The binding affinity of NK3 with recombinant STAT3 determined by the SPR assay. Concentration from top to bottom: 0.078 μM, 0.156 μM, 0.313 μM, 0.625 μM, 1.25 μM, 2.5 μM, 5.0 μM, and 10.0 μM.

[5] = system: human liver cancer HepG2 cells xenograft; test: In vivo antitumor efficacy in nude mice bearing HepG2 xenograft; conditions: for tumor growth inhibition (tumor weight): 21 days
Excerpt: In order to ascertain the viability of IDO1 as an alternative target for compound NK3, a xenograft model was established by inoculating nude mice with human liver cancer HepG2 cells, subsequent to two injections of two doses of NK3 administered at three-day intervals. […] The antitumor effect of NK3 was also reflected in a delayed increase in xenograft volume (Figure 7C).
Figure 7 In vivo antitumor activity of compound NK3 in nude mice bearing HepG2 xenograft model. (A) The images of the harvested tumors from the mice after administration with NK3 (10 and 20 mg/kg) and the positive control doxorubicin (DOX) (5 mg/kg) every 3 days for 3 weeks. (B) Tumor weight of the excised tumors of each group. (C) Tumor volume of the mice in each group during the observation period. (D) Body weight of the mice from each group at the end of the observation period. Body weight change of each group of mice. The data were presented as the mean ± SD. p < 0.05 (versus the vehicle control group). The antitumor assay in nude mice was carried out in one experiment with previous work. TEXT PRINTED IN THE PICTURE: (B) Dox: 53.0% (5 mg/kg) | (B) NK-3: 61.1% (10 mg/kg); 64.4% (20 mg/kg) DOUBTS OF THE COPYIST ABOUT THIS PICTURE: Panel B: the picture prints no measure for the percentages over the bars (53.0%, 61.1%, 64.4%). The axis reads only 'Tumor weight (g)', so they are copied without a measure.

T1 sequence (P14902 whole entry): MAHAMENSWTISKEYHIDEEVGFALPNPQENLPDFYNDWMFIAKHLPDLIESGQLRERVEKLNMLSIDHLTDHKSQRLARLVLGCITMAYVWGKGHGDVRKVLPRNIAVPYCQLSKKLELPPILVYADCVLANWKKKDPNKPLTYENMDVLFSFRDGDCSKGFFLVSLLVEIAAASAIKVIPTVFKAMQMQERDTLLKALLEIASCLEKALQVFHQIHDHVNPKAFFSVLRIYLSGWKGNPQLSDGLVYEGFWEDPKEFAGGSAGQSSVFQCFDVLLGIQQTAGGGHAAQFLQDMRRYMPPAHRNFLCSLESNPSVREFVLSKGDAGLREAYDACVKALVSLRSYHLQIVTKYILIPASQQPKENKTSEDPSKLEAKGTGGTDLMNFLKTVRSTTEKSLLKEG
Sequence of recombinant STAT3 (P40763 whole entry, species assumed): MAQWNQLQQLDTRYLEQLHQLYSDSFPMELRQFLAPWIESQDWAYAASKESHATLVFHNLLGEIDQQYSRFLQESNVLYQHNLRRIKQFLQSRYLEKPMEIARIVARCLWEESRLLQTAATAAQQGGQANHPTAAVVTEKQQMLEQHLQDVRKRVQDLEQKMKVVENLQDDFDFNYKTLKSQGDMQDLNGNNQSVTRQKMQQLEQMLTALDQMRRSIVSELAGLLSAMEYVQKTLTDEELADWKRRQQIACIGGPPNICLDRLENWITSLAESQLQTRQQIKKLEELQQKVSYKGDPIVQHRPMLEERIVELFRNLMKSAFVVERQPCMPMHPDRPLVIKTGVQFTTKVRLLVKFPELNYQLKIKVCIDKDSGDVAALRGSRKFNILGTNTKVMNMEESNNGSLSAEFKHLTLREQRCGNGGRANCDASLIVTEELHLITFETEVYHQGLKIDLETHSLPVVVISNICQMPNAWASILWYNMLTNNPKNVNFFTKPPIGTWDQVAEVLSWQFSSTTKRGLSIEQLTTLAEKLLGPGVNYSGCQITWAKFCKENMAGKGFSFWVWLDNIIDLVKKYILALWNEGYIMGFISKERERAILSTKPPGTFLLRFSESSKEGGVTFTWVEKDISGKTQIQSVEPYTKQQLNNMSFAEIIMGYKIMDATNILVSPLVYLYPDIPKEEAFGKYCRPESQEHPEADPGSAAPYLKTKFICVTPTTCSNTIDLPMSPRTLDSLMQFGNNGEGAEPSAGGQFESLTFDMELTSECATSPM

Row | Compound | IC50 (HepG2) | IC50 (SKOV3) | tumor weight reduction ([1]; 100 mg/kg intraperitoneal) | IC50 (Hct-116) | IC50 (human IDO1 [2]) | melting point | also measured
1 | Nc1nonc1C(=NO)Nc1ccc(F)c(Cl)c1 [IDO5L, reference compound] | > 40 µM | > 40 µM | 70.9% | > 40 µM |  |  | 
2 | Cn1cc(C[C@H](N)C(=O)O)c2ccccc21 [Compound 1-MT, 1-methyl-L-tryptophan, reference compound] |  |  | 45.6% |  |  |  | 
3 | COc1cccc2c1C(=O)c1c(O)c3c(c(O)c1C2=O)C[C@@](O)(C(=O)CO)C[C@@H]3O[C@H]1C[C@H](N)[C@H](O)[C@H](C)O1 [DOX, doxorubicin, reference compound] | 0.28 ± 0.03 µM | 0.58 ± 0.28 µM |  | 0.37 ± 0.02 µM |  |  | 
4 | CCCCC(CC)CNC(=O)C(Cc1ccccc1)NC1=C/C(=N/O)c2ccccc2C1=O (stereo not shown) [NK1, (Z)-N-(2-ethylhexyl)-2-((4-(hydroxyimino)-1-oxo-1,4-dihydronaphthalen-2-yl)amino)-3-phenylpropanamide] | 1.28 ± 0.27 µM | 0.95 ± 0.18 µM |  | 0.49 ± 0.14 µM | 3450 nM | 120.3 to 121.8 °C | 
5 | CCCNC(=O)C(Cc1ccccc1)NC1=C/C(=N/O)c2ccccc2C1=O (stereo not shown) [NK3, (Z)-2-((4-(hydroxyimino)-1-oxo-1,4-dihydronaphthalen-2-yl)amino)-3-phenyl-N-propylpropanamide] | 0.16 ± 0.04 µM | 0.48 ± 0.23 µM | 65.8% | 0.18 ± 0.04 µM | 60 nM |  | STAT3 nuclear translocation [3]: significantly inhibited; Kd (human IDO1 [4]): 160 nM; relative tumor volume growth rate (T/C) ([1]; 50 mg/kg): 56.00%; tumor weight reduction ([1]; 50 mg/kg intraperitoneal): 42.8%; relative tumor volume growth rate (T/C) ([1]; 100 mg/kg): 29.07%; pathology (H&E) of heart, liver, spleen, lung, kidney ([1]; CT26 tumor-bearing mice): no obvious morphological and pathological changes; body weight change versus vehicle ([1]; CT26 tumor-bearing mice, 21 days of treatment): no significant change in body weight; Kd (recombinant STAT3): 170 nM; tumor growth inhibition (tumor weight) ([5]; 10 mg/kg intravenous every 3 days): 61.1%; tumor growth inhibition (tumor weight) ([5]; 20 mg/kg intravenous every 3 days): 64.4%; body weight / tolerability ([5]; compared to DOX): did not cause significant weight loss
6 | O=C1C(NC(Cc2ccccc2)C(=O)NCCc2ccccc2)=C/C(=N/O)c2ccccc21 (stereo not shown) [NK2, (Z)-2-((4-(hydroxyimino)-1-oxo-1,4-dihydronaphthalen-2-yl)amino)-N-phenethyl-3-phenylpropanamide] | 5.08 ± 0.33 µM | 4.25 ± 1.65 µM |  | 5.84 ± 1.34 µM | 8220 nM | 197.2 to 198.6 °C | 
